Consider 29 compounds from ChEMBL document CHEMBL5032529, “Synthesis and evaluation of tetrahydroisoquinoline derivatives against Trypanosoma brucei rhodesiense” (Eur J Med Chem, 2021).

One data set relates to Vero. The experiment in a line: Cytotoxicity against African green monkey Vero cells assessed as reduction in cell viability measured after 72 hrs by SRB assay. Format: cell-based. Conditions: Chlorocebus sabaeus.
Data set [1] concerns Trypanosoma brucei rhodesiense. Description: Antitrypanosomal activity against Trypanosoma brucei rhodesiense STIB900 assessed as parasite growth inhibition measured after 72 hrs by alamar blue dye based spectrofluorimetric analysis. Format: functional, organism-based. Particulars: STIB900, 72 h.
The nature of data set [2]: Selectivity index, ratio of IC50 for cytotoxicity against African green monkey Vero cells to IC50 for antitrypanosomal activity against Trypanosoma brucei rhodesiense STI B900. Format: toxicity, cell-based. Conditions: read-out: Ratio IC50.

Regarding `Oc1cccc2c1CNCC2O` (centres undefined), the IC50 (in the data set with Vero; in data set [1]) was greater than 100 µM each time.

For `COc1cccc2c1CN(C)C[C@@H]2O`, the IC50 (in the data set with Vero; in data set [1]) was greater than 100 µM each time.

`CCN1Cc2ccc(O)cc2C(O)C1` (centres undefined): the IC50 (with Vero; in data set [1]) was greater than 100 µM in each case.

With `COc1ccc(COc2ccc3c(c2)[C@@H](O)CN(C)C3)cc1`, the IC50 with Vero was greater than 50 µM; in data set [1], 17.5 µM. The selectivity ratio in data set [2] is greater than 2.9.

In the case of `CN1Cc2ccc(OCc3ccccc3)cc2[C@@H](O)C1`, the results for the concentration for half-maximal inhibition (IC50) (with Vero; in data set [1]) were greater than 100 µM and 25.6 µM, respectively. Moreover, the selectivity ratio in data set [2] was greater than 3.9.

Turning to `Cc1ccccc1COc1ccc2c(c1)[C@@H](O)CN(C)C2`, the half-inhibitory concentration (IC50) with Vero was greater than 100 µM; in data set [1] it was 20.7 µM. Further, in data set [2], the selectivity ratio was greater than 4.8.

Regarding `Oc1ccc2c(c1)C(O)CNC2` (centres undefined), the IC50 (in the data set on Vero; in data set [1]) was greater than 100 µM each time.

Take `CN(C)CCOc1ccc2c(c1)[C@@H](O)CN(C)C2`: the IC50 (with Vero; in data set [1]) was greater than 50 µM each time.

As for `CN1Cc2ccc(OCc3ccc([N+](=O)[O-])cc3)cc2[C@@H](O)C1`, the half-maximal inhibitory concentration (IC50) was greater than 50 µM with Vero and 16.9 µM in data set [1]. Also, in data set [2], the selectivity ratio was greater than 3.

As to `CN1Cc2ccc(O)cc2[C@@H](OCc2ccccc2)C1`, the IC50 (in the data set on Vero; in data set [1]) was greater than 50 µM in each case.

As for `CN1Cc2ccc(OCCCc3ccccc3)cc2[C@@H](O)C1`, the IC50 in the data set with Vero is greater than 50 µM; in data set [1], 18.7 µM. The selectivity ratio in data set [2] was greater than 2.7.

Turning to `CN1Cc2ccc(OCCc3ccccc3)cc2[C@@H](O)C1`, the IC50 is greater than 50 µM in the data set with Vero and 17.9 µM in data set [1]. The selectivity ratio in data set [2] was greater than 2.8.

For the compound `CN1Cc2ccc(OCC3CCNCC3)cc2[C@@H](O)C1`, the IC50 (with Vero; in data set [1]) was greater than 100 µM in each case.

Turning to `CN1Cc2ccc(OCCCn3cnc([N+](=O)[O-])c3)cc2[C@@H](O)C1`, the IC50 (in the data set on Vero; in data set [1]) was greater than 50 µM in each case.

`CN1Cc2ccc(OCCCN3CCNCC3)cc2[C@@H](O)C1`: the concentration for half-maximal inhibition (IC50) (with Vero; in data set [1]) was greater than 100 µM in each case.

Turning to `CCCN1Cc2ccc(O)cc2C(O)C1` (centres undefined), the half-maximal inhibitory concentration (IC50) (in the data set with Vero; in data set [1]) was greater than 100 µM each time.

For the compound `CN1Cc2c(O)cccc2[C@@H](O)C1`, the IC50 (with Vero; in data set [1]) was greater than 100 µM each time.

For `CCCCCCCCCCCC1c2ccc(O)cc2[C@@H](O)CN1C` (some centres undefined), in data set [1], the IC50 amounted to 0.39 µM.

On to `OC1CCCc2ccc(OCc3ccc(-c4ccccc4)cc3)cc21` (centres undefined), for which the IC50 (in the data set with Vero; in data set [1]) was greater than 100 µM each time.

`COCCOCOc1ccc2c(c1)[C@@H](O)CN(C)C2`: the IC50 (in the data set with Vero; in data set [1]) was greater than 50 µM each time.

Take `COc1ccc2c(c1)[C@@H](O)CN(C)C2`: the IC50 (in the data set on Vero; in data set [1]) was greater than 100 µM throughout.

Take `Oc1ccc2c(c1)C(O)CCC2` (centres undefined): the IC50 (with Vero; in data set [1]) was greater than 100 µM each time.

For the compound `Cc1cccc(COc2ccc3c(c2)[C@@H](O)CN(C)C3)c1`, the IC50 with Vero was greater than 50 µM; in data set [1], 20.3 µM. Also, the selectivity ratio in data set [2] is greater than 2.5.

`CN1Cc2ccc(OCc3cccnc3)cc2[C@@H](O)C1`: the IC50 (with Vero; in data set [1]) was greater than 50 µM throughout.

On to `CN1Cc2ccc(OCc3ccc(-c4ccccc4)cc3)cc2[C@@H](O)C1`, for which the IC50 in the data set on Vero worked out at 23 µM; in data set [1], 2.9 µM. Further, the selectivity ratio in data set [2] was found to be 7.9.

Regarding `CN1Cc2ccc(OCC3CCCCC3)cc2[C@@H](O)C1`, the IC50 turned out to be 65.6 µM in the data set with Vero and 2.8 µM in data set [1]. Also, the selectivity ratio in data set [2] was 23.4.

On to `CN1CCc2cc(O)ccc2C1`, for which the IC50 (with Vero; in data set [1]) was greater than 100 µM throughout.

For the compound `Cc1c2ccncc2c(C)c2c1[nH]c1ccccc12` [ELLIPTECINE], the IC50 with Vero is 2.4 µM.

`N=C(N)c1ccc(OCCCCCOc2ccc(C(=N)N)cc2)cc1` [PENTAMIDINE]: the half-inhibitory concentration (IC50) in data set [1] is 0.00707 µM.
